What was measured:
[1] = target: T1, Adrenergic receptor alpha-1 (Rattus norvegicus, UniProt P15823+P23944+P43140); test: Binding affinity towards Alpha-1 adrenergic receptor in rat cerebral cortex membranes using [3H]prazosin as radioligand; format: cell membranes, Membrane
T1 sequence (P15823 whole entry): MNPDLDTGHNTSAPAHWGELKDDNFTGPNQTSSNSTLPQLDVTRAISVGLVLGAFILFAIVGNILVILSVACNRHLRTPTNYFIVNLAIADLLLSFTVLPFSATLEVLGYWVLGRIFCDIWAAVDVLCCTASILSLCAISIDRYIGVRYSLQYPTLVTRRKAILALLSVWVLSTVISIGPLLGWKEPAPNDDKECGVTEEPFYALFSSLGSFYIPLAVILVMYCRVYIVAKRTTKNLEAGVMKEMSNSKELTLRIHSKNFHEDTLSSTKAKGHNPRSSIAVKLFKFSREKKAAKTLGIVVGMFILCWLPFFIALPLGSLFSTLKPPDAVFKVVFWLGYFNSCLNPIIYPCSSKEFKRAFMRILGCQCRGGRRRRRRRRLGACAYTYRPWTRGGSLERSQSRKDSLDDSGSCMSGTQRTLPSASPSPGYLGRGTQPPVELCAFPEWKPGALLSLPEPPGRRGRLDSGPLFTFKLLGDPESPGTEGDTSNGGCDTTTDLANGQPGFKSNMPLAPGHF
T1 sequence (P23944 whole entry): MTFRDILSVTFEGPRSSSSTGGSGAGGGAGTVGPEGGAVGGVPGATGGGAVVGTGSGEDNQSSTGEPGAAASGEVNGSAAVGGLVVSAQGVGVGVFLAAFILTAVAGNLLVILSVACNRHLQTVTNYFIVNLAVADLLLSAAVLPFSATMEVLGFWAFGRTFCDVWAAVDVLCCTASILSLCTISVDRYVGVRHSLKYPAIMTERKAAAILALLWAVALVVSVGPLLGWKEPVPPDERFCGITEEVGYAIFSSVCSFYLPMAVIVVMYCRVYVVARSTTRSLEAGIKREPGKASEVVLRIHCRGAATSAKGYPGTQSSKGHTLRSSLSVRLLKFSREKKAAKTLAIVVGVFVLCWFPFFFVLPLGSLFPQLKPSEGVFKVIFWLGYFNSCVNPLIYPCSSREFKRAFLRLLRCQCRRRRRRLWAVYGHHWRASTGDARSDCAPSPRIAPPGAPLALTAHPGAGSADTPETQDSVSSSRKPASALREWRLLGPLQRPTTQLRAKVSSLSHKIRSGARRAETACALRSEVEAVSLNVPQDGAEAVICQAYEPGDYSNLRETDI
T1 sequence (P43140 whole entry): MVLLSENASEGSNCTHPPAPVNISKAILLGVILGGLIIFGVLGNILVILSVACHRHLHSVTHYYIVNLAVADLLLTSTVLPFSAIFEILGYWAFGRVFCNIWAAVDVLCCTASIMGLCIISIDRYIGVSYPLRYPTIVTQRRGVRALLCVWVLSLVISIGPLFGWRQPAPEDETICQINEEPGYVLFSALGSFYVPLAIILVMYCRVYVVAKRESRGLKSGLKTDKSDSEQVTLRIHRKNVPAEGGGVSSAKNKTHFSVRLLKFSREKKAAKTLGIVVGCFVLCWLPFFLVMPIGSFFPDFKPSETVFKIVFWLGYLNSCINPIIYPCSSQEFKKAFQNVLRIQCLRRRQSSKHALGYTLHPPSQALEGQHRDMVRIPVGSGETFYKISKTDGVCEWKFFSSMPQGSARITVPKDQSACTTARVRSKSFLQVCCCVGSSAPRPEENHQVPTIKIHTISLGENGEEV

[2] = target: T2, 5-hydroxytryptamine receptor 1A (Rattus norvegicus, UniProt P19327); test: Binding affinity towards 5-HT 1A receptor in rat cerebral cortex membranes using [3H]8-OH-DPAT as radioligand; format: cell membranes, Membrane
T2 sequence (P19327 whole entry): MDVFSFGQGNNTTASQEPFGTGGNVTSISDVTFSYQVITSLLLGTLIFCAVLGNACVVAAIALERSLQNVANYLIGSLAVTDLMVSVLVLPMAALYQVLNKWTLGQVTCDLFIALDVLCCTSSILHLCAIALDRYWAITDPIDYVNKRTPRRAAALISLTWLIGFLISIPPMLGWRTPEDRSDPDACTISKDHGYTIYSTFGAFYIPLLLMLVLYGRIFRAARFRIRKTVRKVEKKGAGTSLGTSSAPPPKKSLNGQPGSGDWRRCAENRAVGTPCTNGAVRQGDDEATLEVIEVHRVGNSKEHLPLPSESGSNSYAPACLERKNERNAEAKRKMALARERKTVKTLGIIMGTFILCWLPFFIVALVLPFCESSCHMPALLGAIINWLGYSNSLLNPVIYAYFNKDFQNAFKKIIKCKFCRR

[3] = target: GABA-A receptor; anion channel; test: Displacement of [3H]flunitrazepam from GABA-A benzodiazepine receptor of rat cerebral cortex membranes; format: cell membranes, Membrane
[4] = target: 5-hydroxytryptamine receptor 4 (Rattus norvegicus, UniProt Q62758); test: Binding affinity towards 5-HT 4 receptor in rat striatum membranes using [3H]GR-113808 as radioligand; format: cell membranes, Membrane
5-hydroxytryptamine receptor 4, sequence (Q62758 whole entry): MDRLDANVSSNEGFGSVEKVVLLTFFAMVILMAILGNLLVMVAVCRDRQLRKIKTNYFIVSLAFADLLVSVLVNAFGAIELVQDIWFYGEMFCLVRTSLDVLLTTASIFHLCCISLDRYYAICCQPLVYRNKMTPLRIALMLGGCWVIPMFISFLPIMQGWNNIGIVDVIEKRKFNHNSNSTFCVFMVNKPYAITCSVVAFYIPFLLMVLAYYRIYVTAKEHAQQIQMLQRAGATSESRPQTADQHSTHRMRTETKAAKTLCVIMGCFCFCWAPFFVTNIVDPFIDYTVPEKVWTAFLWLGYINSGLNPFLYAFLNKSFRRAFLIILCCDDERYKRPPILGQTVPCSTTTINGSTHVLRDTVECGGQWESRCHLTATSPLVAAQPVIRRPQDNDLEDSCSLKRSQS

[5] = target: 5-hydroxytryptamine receptor 7 (Rattus norvegicus, UniProt P32305); test: Binding affinity towards 5-HT 7 receptor in rat hypothalamus membranes using [3H]5-CT as radioligand; format: cell membranes, Membrane
5-hydroxytryptamine receptor 7, sequence (P32305 whole entry): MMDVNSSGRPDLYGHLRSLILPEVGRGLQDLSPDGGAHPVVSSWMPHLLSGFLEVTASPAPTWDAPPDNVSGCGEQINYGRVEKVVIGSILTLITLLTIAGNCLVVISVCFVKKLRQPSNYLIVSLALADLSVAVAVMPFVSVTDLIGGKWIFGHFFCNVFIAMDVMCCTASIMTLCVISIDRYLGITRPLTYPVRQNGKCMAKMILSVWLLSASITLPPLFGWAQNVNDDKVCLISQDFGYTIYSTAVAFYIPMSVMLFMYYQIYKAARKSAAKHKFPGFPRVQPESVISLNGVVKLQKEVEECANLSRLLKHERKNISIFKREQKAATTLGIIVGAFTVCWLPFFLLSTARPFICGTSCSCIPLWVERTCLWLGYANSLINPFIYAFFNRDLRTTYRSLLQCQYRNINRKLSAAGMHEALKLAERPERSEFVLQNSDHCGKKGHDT

[6] = target: 5-hydroxytryptamine receptor 2A (Rattus norvegicus, UniProt P14842); test: Binding affinity towards 5-HT 2A receptor in rat cerebral frontal cortex membranes using [3H]ketanserin as radioligand; format: tissue-based, Membrane
5-hydroxytryptamine receptor 2A, sequence (P14842 whole entry): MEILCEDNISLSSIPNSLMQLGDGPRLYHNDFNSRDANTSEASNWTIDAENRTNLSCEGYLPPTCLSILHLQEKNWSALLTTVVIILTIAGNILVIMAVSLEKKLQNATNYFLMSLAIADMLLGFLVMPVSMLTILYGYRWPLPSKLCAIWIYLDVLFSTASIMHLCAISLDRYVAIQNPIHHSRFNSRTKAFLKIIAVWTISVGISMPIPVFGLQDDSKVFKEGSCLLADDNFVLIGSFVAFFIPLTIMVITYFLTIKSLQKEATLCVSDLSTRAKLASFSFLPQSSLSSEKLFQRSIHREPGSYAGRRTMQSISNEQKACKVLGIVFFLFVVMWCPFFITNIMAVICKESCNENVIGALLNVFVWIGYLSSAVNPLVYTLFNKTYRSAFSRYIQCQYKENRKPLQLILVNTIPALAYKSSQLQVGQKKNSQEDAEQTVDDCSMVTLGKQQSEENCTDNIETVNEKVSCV

D(2) dopamine receptor = D(2) dopamine receptor (Rattus norvegicus, UniProt P61169); test: Binding affinity towards dopamine D2 receptor in rat striatum membranes using [3H]raclopride as radioligand; format: cell membranes, Membrane
D(2) dopamine receptor, sequence (P61169 whole entry): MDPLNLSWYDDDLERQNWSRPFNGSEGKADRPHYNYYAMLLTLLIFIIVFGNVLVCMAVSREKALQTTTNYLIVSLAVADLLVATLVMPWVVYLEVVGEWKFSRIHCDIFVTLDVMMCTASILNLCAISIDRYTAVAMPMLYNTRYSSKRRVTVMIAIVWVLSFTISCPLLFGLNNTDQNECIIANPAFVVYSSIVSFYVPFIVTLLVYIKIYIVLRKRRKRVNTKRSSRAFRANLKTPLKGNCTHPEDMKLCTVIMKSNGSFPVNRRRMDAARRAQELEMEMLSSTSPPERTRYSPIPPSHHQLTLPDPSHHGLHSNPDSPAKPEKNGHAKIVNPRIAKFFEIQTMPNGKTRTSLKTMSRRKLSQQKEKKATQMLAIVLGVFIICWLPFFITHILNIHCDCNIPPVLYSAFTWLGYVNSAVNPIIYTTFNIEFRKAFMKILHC

[7] = target: Sodium-dependent serotonin transporter (Rattus norvegicus, UniProt P31652); test: Binding affinity towards 5-HT transporter in rat cerebral cortex membranes using [3H]paroxetine as radioligand; format: cell membranes, Membrane
Sodium-dependent serotonin transporter, sequence (P31652 whole entry): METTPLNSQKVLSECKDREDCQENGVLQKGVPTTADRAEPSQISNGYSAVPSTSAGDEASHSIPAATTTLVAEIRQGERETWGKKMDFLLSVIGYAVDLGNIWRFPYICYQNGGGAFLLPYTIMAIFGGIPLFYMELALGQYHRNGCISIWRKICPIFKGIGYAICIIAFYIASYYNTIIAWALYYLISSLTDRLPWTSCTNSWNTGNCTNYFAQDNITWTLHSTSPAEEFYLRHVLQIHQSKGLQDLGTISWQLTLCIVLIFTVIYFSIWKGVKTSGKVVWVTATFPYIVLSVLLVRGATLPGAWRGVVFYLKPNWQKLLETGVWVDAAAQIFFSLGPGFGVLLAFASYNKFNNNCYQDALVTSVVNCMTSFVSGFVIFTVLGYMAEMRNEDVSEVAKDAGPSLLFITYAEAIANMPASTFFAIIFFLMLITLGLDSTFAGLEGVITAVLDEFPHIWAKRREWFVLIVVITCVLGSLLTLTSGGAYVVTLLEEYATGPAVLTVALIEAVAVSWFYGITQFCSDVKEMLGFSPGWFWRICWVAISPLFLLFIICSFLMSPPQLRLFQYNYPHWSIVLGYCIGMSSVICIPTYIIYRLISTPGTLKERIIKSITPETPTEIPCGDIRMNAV

| Ki [1] [µM] | Ki [2] [µM] | SMILES | other results |
| --- | --- | --- | --- |
| 0.0649 | 0.0024 | O=C1C2CCCN2C(=O)N1CCCCN1CCN(c2cccc3ccccc23)CC1 (configuration not stated) |  |
| 10 | 0.0041 | O=C1C2CCCN2C(=O)N1CN1CCN(c2cccc3[nH]cnc23)CC1 (configuration not stated) |  |
| > 1 | 0.0093 | O=C1C2CCCCN2C(=O)N1CN1CCN(c2cccc3c2OCCO3)CC1 (configuration not stated) |  |
| > 1 | 0.0123 | O=C1C2CCCN2C(=O)CN1CN1CCN(c2cccc3c2COCCO3)CC1 (configuration not stated) |  |
| > 1 | 0.0056 | O=C1C2CCCCN2C(=O)N1CN1CCN(c2cccc3ccccc23)CC1 (configuration not stated) |  |
| > 1 | 0.0061 | O=C1C2CCCCN2C(=O)N1CN1CCN(c2cccc3c2COCCO3)CC1 (configuration not stated) |  |
| > 1 | 0.0041 | O=C1C2CCCN2C(=O)CN1CN1CCN(c2cccc3ccccc23)CC1 (configuration not stated) | Ki [3]: > 10 µM; Ki [4]: > 10 µM; Ki [5]: 0.101 µM; Ki [6]: 0.0135 µM; Ki (D(2) dopamine receptor): 0.192 µM; Ki [7]: 0.976 µM |
| > 1 | 0.0104 | O=C1C2CCCN2C(=O)N1CN1CCN(c2cccc3ccccc23)CC1 (configuration not stated) |  |
